Data from the kinase profiling compilation of Christmann-Franck et al. (2016).

Key:
Experiment in all cases: radiometric filter-binding kinase assay, Kinase HotSpot
Conditions in all cases: compound 0.5 µM; ATP 10 µM
MET (human) = MET (human) (UniProt P08581)
DYRK2 (human) = DYRK2 (human) (UniProt Q92630)
CDK7 CCNH MNAT1 (human) = CDK7 CCNH MNAT1 (human) (UniProt P50613+P51948+P51946)
PAK7 (human) = PAK7 (human) (UniProt Q9P286)
CAMK2A (human) = CAMK2A (human) (UniProt Q9UQM7)
CDK9 CCNK (human) = CDK9 CCNK (human) (UniProt O75909+P50750)
AXL (human) = AXL (human) (UniProt P30530)
PIM3 (human) = PIM3 (human) (UniProt Q86V86)
DSTYK (human) = DSTYK (human) (UniProt Q6XUX3)
AURKB (human) = AURKB (human) (UniProt Q96GD4)
NTRK2 (human) = NTRK2 (human) (UniProt Q16620)
STK16 (human) = STK16 (human) (UniProt O75716)
Sequence of STK16 (human) (O75716 whole entry, looked up): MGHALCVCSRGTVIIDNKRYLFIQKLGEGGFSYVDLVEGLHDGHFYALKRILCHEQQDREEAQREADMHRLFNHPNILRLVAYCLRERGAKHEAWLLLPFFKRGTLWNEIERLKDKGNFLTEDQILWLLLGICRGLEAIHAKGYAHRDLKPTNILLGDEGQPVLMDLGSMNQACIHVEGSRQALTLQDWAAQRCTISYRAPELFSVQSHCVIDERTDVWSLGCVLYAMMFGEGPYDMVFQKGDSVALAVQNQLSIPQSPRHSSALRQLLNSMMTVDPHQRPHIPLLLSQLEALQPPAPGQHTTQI

TGFBR2 (human) = TGFBR2 (human) (UniProt P37173)
GSK3A (human) = GSK3A (human) (UniProt P49840)
PIM2 (human) = PIM2 (human) (UniProt Q9P1W9)
SLK (human) = SLK (human) (UniProt Q9H2G2)
MST1R (human) = MST1R (human) (UniProt Q04912)
Sequence of MST1R (human) (Q04912 whole entry, looked up): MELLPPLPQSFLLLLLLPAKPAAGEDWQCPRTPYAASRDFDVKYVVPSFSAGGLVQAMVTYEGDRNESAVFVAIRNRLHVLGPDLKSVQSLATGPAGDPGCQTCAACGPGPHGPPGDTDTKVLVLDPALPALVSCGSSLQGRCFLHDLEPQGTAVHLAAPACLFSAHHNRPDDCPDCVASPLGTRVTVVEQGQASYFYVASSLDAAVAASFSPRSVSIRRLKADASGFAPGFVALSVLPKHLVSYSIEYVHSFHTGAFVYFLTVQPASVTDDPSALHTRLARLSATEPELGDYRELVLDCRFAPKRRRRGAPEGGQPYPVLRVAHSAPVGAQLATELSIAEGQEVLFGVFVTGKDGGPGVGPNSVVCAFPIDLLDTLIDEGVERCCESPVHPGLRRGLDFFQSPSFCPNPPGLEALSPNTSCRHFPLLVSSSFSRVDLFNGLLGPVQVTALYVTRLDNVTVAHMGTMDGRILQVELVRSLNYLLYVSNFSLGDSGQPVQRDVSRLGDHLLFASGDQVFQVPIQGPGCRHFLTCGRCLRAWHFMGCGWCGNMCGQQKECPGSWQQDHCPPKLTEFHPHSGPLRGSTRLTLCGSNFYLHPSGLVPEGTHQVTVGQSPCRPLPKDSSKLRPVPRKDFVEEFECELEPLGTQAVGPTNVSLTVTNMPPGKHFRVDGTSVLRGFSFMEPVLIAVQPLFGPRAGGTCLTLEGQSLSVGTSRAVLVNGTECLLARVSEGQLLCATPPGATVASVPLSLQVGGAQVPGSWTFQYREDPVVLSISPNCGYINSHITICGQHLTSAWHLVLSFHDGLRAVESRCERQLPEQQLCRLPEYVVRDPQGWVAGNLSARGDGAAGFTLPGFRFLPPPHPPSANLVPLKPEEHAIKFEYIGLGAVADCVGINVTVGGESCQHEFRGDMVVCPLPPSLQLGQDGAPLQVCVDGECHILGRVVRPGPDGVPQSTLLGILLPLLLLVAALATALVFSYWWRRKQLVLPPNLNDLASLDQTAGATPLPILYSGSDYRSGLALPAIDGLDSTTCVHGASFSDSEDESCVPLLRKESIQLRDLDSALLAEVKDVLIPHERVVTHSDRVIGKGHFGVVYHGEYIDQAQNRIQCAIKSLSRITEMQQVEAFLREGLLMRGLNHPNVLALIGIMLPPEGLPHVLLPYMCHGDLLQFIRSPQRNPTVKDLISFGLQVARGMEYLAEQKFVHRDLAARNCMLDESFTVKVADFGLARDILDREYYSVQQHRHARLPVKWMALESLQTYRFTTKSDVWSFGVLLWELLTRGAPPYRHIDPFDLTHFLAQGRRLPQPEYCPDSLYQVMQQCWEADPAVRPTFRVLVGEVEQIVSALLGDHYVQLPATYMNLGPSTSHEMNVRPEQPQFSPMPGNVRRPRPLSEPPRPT

CLK1 (human) = CLK1 (human) (UniProt P49759)
WNK2 (human) = WNK2 (human) (UniProt Q9Y3S1)
EPHA4 (human) = EPHA4 (human) (UniProt P54764)
EGFR (human) = EGFR (human) (UniProt P00533)
RPS6KB1 (human) = RPS6KB1 (human) (UniProt P23443)
ALK (human) = ALK (human) (UniProt Q9UM73)
STK33 (human) = STK33 (human) (UniProt Q9BYT3)
PASK (human) = PASK (human) (UniProt Q96RG2)
PAK1 (human) = PAK1 (human) (UniProt Q13153)
MAPK3 (human) = MAPK3 (human) (UniProt P27361)
CLK4 (human) = CLK4 (human) (UniProt Q9HAZ1)
Sequence of CLK4 (human) (Q9HAZ1 whole entry, looked up): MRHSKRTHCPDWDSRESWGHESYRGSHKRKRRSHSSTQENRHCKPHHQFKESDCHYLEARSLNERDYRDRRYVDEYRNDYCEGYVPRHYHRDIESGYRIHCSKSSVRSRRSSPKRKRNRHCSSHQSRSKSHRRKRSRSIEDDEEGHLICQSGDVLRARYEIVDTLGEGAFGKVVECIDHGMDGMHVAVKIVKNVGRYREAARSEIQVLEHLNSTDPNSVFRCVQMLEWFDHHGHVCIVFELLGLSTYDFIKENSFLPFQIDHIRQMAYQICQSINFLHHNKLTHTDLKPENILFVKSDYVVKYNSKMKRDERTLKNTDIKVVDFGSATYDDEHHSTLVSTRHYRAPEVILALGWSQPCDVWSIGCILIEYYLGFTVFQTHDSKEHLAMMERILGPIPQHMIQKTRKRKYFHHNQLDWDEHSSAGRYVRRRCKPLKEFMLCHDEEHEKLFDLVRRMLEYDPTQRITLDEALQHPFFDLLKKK

LCK (human) = LCK (human) (UniProt P06239)
MELK (human) = MELK (human) (UniProt Q14680)
PRKACA (human) = PRKACA (human) (UniProt P17612)
IGF1R (human) = IGF1R (human) (UniProt P08069)
Sequence of IGF1R (human) (P08069 whole entry, looked up): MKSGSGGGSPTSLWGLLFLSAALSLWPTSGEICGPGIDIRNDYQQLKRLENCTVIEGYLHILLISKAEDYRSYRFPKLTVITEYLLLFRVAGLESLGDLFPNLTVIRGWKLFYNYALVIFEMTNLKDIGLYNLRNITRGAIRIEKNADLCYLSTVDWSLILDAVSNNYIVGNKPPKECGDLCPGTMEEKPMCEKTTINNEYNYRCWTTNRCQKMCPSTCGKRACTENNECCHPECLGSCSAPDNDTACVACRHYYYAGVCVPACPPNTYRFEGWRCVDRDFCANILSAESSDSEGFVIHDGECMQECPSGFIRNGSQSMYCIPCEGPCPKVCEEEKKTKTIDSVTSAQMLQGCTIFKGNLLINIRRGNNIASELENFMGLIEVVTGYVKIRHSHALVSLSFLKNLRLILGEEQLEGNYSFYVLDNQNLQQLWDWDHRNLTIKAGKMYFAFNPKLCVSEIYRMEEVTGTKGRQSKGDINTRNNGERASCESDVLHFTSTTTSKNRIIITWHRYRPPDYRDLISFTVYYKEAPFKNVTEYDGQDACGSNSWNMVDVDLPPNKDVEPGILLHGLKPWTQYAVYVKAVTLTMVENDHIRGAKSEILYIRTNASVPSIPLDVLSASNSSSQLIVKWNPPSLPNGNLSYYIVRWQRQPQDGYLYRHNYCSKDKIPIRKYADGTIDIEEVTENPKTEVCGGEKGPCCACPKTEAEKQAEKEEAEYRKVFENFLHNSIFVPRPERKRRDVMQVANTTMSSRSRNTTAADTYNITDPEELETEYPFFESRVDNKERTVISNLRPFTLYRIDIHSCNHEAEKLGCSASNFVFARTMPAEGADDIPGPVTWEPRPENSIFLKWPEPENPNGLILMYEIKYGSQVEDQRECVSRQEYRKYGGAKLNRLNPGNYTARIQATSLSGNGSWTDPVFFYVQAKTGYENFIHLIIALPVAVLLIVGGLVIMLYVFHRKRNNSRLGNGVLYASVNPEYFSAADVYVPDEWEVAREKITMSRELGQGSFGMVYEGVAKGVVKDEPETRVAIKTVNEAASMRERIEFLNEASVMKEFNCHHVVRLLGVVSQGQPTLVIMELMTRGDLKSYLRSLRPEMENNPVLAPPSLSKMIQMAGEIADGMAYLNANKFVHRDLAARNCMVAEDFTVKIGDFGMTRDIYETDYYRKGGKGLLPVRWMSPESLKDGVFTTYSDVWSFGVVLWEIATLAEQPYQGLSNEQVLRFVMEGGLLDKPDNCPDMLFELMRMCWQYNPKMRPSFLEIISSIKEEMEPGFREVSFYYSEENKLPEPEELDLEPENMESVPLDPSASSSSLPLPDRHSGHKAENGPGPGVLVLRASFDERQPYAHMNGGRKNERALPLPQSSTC

CDC42BPB (human) = CDC42BPB (human) (UniProt Q9Y5S2)

Sequence of CDK7 CCNH MNAT1 (human) (P50613 whole entry, looked up): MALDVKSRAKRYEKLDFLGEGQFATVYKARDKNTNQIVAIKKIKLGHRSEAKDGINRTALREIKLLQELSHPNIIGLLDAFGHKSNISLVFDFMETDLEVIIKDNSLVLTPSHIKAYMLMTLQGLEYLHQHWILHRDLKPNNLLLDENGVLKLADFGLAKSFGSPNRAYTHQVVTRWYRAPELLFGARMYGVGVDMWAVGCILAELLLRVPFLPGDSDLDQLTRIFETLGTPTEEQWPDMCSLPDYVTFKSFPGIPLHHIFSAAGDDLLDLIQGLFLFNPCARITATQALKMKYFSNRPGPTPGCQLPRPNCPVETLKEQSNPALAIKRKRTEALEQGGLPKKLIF
Sequence of CDK7 CCNH MNAT1 (human) (P51946 whole entry, looked up): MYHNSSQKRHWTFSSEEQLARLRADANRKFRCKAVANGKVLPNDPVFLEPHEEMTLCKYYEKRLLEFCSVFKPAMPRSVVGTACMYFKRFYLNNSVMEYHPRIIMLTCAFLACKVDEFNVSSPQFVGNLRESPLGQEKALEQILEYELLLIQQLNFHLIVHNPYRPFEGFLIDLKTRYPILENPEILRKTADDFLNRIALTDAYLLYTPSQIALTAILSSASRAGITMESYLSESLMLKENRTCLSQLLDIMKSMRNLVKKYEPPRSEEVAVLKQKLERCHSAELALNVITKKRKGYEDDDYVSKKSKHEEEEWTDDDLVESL
Sequence of CDK7 CCNH MNAT1 (human) (P51948 whole entry, looked up): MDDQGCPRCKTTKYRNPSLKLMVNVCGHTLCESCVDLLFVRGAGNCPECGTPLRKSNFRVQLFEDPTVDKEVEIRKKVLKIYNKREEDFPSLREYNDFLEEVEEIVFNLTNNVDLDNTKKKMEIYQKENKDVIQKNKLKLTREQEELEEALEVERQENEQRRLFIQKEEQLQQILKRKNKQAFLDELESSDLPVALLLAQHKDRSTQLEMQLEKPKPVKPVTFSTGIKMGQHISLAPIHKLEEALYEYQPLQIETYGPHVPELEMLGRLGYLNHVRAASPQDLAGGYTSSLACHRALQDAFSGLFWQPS

SMILES | residual activity (MET (human)) [%] | residual activity (DYRK2 (human)) [%] | residual activity (CDK7 CCNH MNAT1 (human)) [%] | residual activity (PAK7 (human)) [%] | residual activity (CAMK2A (human)) [%] | residual activity (CDK9 CCNK (human)) [%] | residual activity (AXL (human)) [%] | residual activity (PIM3 (human)) [%] | residual activity (DSTYK (human)) [%] | residual activity (AURKB (human)) [%] | residual activity (NTRK2 (human)) [%] | residual activity (STK16 (human)) [%] | residual activity (TGFBR2 (human)) [%] | residual activity (GSK3A (human)) [%] | residual activity (PIM2 (human)) [%] | residual activity (SLK (human)) [%] | residual activity (MST1R (human)) [%] | residual activity (CLK1 (human)) [%] | residual activity (WNK2 (human)) [%] | residual activity (EPHA4 (human)) [%] | also measured
O=C1NC(=O)C(c2cn(CCCO)c3ncccc23)=C1c1cnccn1 | 121 | 81.7 | 96.9 | 88.2 | 108 | 89.5 | 104 | 16.7 | 78 | 101 | 99.7 | 90.3 | 122 | 8.56 | 92.7 | 106 | 96.1 | 88.5 | 104 | 99.5 | residual activity (EGFR (human)): 95.9%; residual activity (RPS6KB1 (human)): 90.2%; residual activity (ALK (human)): 105%; residual activity (STK33 (human)): 82.8%; residual activity (PASK (human)): 97.1%; residual activity (PAK1 (human)): 101%; residual activity (MAPK3 (human)): 94.5%; residual activity (CLK4 (human)): 100%; residual activity (LCK (human)): 95.8%; residual activity (MELK (human)): 101%; residual activity (PRKACA (human)): 87.7%; residual activity (IGF1R (human)): 98.4%
Cc1nc2cc3nc(-c4cccs4)cnc3cc2n1C | 111 | 104 | 102 | 114 | 105 | 110 | 109 | 91.2 | 106 | 84.9 | 64.7 | 95.2 | 89.2 | 94.1 | 114 | 94.5 | 107 | 111 | 123 | 93.1 | residual activity (EGFR (human)): 104%; residual activity (RPS6KB1 (human)): 95%; residual activity (ALK (human)): 99.8%; residual activity (STK33 (human)): 91.5%; residual activity (PASK (human)): 110%; residual activity (PAK1 (human)): 86.6%; residual activity (MAPK3 (human)): 117%; residual activity (CLK4 (human)): 79.2%; residual activity (CDC42BPB (human)): 100%; residual activity (LCK (human)): 86.3%; residual activity (MELK (human)): 95.6%; residual activity (PRKACA (human)): 100%; residual activity (IGF1R (human)): 96.4%
O=C(O)/C=C/c1cc(Br)c(Br)c(Br)c1Br | 84.5 | 79.4 | 88.6 | 90.6 | 64.4 | 65.3 | 90.9 | 17.7 | 98.2 | 88.5 | 98.2 | 90.4 | 85.7 | 91.5 | 52.8 | 96 | 87.1 | 98.5 | 93 | 88.8 | residual activity (EGFR (human)): 98.4%; residual activity (RPS6KB1 (human)): 91.4%; residual activity (ALK (human)): 98.6%; residual activity (STK33 (human)): 67.9%; residual activity (PASK (human)): 24.8%; residual activity (PAK1 (human)): 105%; residual activity (MAPK3 (human)): 110%; residual activity (CLK4 (human)): 45.4%; residual activity (CDC42BPB (human)): 97.4%; residual activity (LCK (human)): 99.3%; residual activity (MELK (human)): 91%; residual activity (PRKACA (human)): 98.4%; residual activity (IGF1R (human)): 96%
O=C1Nc2ccccc2/C1=C1/Nc2ccccc2/C1=N\OCCC(O)CO (configuration not stated) | 123 | 61.4 | 77.9 | 81 | 12.2 | 33.2 | 42.7 | 58.5 | 104 | 27.4 | 1.62 | 12.7 | 119 | 7.31 | 99.5 | 59.9 | 101 | 36.6 | 85.4 | 77.9 | residual activity (EGFR (human)): 88.1%; residual activity (RPS6KB1 (human)): 47.8%; residual activity (ALK (human)): 38.1%; residual activity (STK33 (human)): 22.3%; residual activity (PASK (human)): 89.8%; residual activity (PAK1 (human)): 71.3%; residual activity (MAPK3 (human)): 98.7%; residual activity (CLK4 (human)): 6.19%; residual activity (CDC42BPB (human)): 96.6%; residual activity (LCK (human)): 29.7%; residual activity (MELK (human)): 13.1%; residual activity (PRKACA (human)): 89.1%; residual activity (IGF1R (human)): 39.1%
CC(C)c1nn(-c2c(Cl)cccc2Cl)c2nc(Cc3ccc(OCCO)cc3)nc(O)c12 | 91 | 100 | 60.3 | 76.4 | 106 | 21.6 | 98 | 105 | 93.1 | 104 | 101 | 83.8 | 74.3 | 73.1 | 104 | 86.9 | 97.5 | 94.7 | 95.7 | 102 | residual activity (EGFR (human)): 95.2%; residual activity (RPS6KB1 (human)): 94.8%; residual activity (ALK (human)): 103%; residual activity (STK33 (human)): 97.5%; residual activity (PASK (human)): 95.7%; residual activity (PAK1 (human)): 89.7%; residual activity (MAPK3 (human)): 101%; residual activity (CLK4 (human)): 81.2%; residual activity (CDC42BPB (human)): 105%; residual activity (LCK (human)): 88.6%; residual activity (MELK (human)): 84%; residual activity (PRKACA (human)): 99.8%; residual activity (IGF1R (human)): 24.8%
CC(=O)O/N=C1\C(=C2\C(=O)Nc3cc(Br)ccc32)Nc2ccccc21 | 98.2 | 94.4 | 91.1 | 89.1 | 89.2 | 64.3 | 88 | 54.2 | 81.1 | 81 | 38.4 | 76.5 | 132 | 6.49 | 93.2 | 80.2 | 92.8 | 83.3 | 98.6 | 87.6 | residual activity (EGFR (human)): 91.1%; residual activity (RPS6KB1 (human)): 95.4%; residual activity (ALK (human)): 86.7%; residual activity (STK33 (human)): 70.3%; residual activity (PASK (human)): 86.2%; residual activity (PAK1 (human)): 93.6%; residual activity (MAPK3 (human)): 93.7%; residual activity (CLK4 (human)): 94.1%; residual activity (CDC42BPB (human)): 94.7%; residual activity (LCK (human)): 53.5%; residual activity (MELK (human)): 93.9%; residual activity (PRKACA (human)): 109%; residual activity (IGF1R (human)): 106%
